Data published in BigSolDB 2.1.

CCOC(=O)Cc1c(C(=O)OCC)sc(N)c1C#N
solubility (mole fraction)
Details | 273.15 K | 278.15 K | 283.15 K | 288.15 K | 293.15 K | 298.15 K | 303.15 K | 308.15 K | 313.15 K | 318.15 K
in acetone | 0.0446 | 0.0499 | 0.0558 | 0.0628 | 0.071 | 0.0801 | 0.0902 | 0.101 | 0.113 | 0.126
in acetonitrile | 0.0082 | 0.0102 | 0.0125 | 0.0151 | 0.0185 | 0.0225 | 0.0268 | 0.0323 | 0.0385 | 0.0455
in ethanol | 0.0031 | 0.00399 | 0.00505 | 0.00637 | 0.00798 | 0.00998 | 0.0123 | 0.015 | 0.0186 | 0.0227
in ethyl acetate | 0.0237 | 0.0257 | 0.0286 | 0.0318 | 0.0349 | 0.0386 | 0.0427 | 0.0473 | 0.0519 | 0.0567
in isopropanol | 0.00232 | 0.00307 | 0.00396 | 0.00513 | 0.00656 | 0.00845 | 0.0107 | 0.0134 | 0.0168 | 0.0213
in methanol | 0.00483 | 0.00609 | 0.00759 | 0.00947 | 0.0118 | 0.0144 | 0.0176 | 0.0214 | 0.0261 | 0.0313
in n-butanol | 0.00204 | 0.00266 | 0.00343 | 0.00438 | 0.00559 | 0.0071 | 0.0091 | 0.0114 | 0.0144 | 0.0177
in n-propanol | 0.00217 | 0.00286 | 0.0036 | 0.00471 | 0.00618 | 0.00763 | 0.00961 | 0.012 | 0.0151 | 0.0188
in toluene | 0.000402 | 0.00052 | 0.000664 | 0.000858 | 0.00109 | 0.00139 | 0.00171 | 0.00215 | 0.00265 | 0.00323
